Reference: article PMC4587935, “Structure and Sialyllactose Binding of the Carboxy-Terminal Head Domain of the Fibre from a Siadenovirus, Turkey Adenovirus 3” (PLoS ONE, 2015)

How the values were obtained:
[1] = test system: His-tagged TAdV-3 fibre head protein; assay: Glycan microarray binding assay; design: species or system turkey adenovirus 3 (TAdV-3); conditions: for inhibition of fibre head binding to the glycan microarray: in the presence of 100 mM sugar; for fluorescence intensity on glycan microarray: binding threshold approximately 1,600 RFU (five times background)
Method: The proteins were profiled on neoglycoconjugate microarrays to identify potential glycan ligands for TAdV-3 fibre head proteins. The microarrays were constructed as previously described and presented 71 different simple to complex glycans on glycoproteins or attached to protein backbones through linkers (S1 Table). Several viral protein concentrations were titrated in Tris-buffered saline supplemented with Ca^2+ and Mg^2+ ions (TBS; 20 mM Tris-HCl, 100 mM NaCl, 1 mM CaCl2, 1 mM MgCl2, pH 7.2) and with 0.05% Tween 20 (TBS-T). It was determined that 10 μg/ml in TBS-T was the concentration for optimal signal to noise ratio. Similarly, the concentration of the anti-6XHis IgG-CF640R (Sigma Aldrich, Tres Cantos, Spain) monoclonal antibody for detection of viral protein binding was optimized and a 1 in 750 dilution in TBS-T was subsequently used.
Two-step incubations were carried out as previously described with minor modifications. First, the viral proteins were incubated on the microarray slides for 1 h at 23°C and 4 rpm. The microarray slides and gaskets were then separated while submerged under TBS-T, washed 3 times in TBS-T for 2 min each with gentle agitation in a Coplin jar, with a final 2 min wash in TBS. After centrifuging to dry the slides (1,500 rpm, 5 min), all subsequent steps were carried out in the dark. The microarray slides were incubated with the fluorescently labelled anti-6XHis IgG as in the first step, washed and dried by centrifugation and scanned immediately on an Agilent G2505 microarray scanner using the Cy5 channel (633 nm excitation, 80% PMT, 5 mm resolution). All experiments were carried out in triplicate and binding inhibition assays were performed in parallel in the presence of 100 mM galactose and lactose to verify specific binding. Data extraction and analysis was carried out as previously described. Binding was taken as above an experimental threshold of five times the background, which was approximately 1,600 relative fluorescence units (RFU) in this case.

[2] = target: TAdV-3 fiber head mutant R368A (avirulent context) (Turkey adenovirus 3, UniProt A0ABF7PFF5, R368A); assay: biochemical; assay type: binding, turkey adenovirus 3 (TAdV-3)
[3] = target: TAdV-3 fiber head mutant K421A (avirulent context); conditions: ITC, 25°C, pH 6.0; n.o. = no binding observed
[4] = target: TAdV-3 fibre head (avirulent) (Turkey adenovirus 3, UniProt A0ABF7PFF5); assay: Isothermal titration calorimetry (ITC), avirulent fibre head; assay type: binding, turkey adenovirus 3 (TAdV-3); conditions: 25°C
Method: (§1) Isothermal titration calorimetry (ITC) was performed at 25°C with a Microcal VP-ITC microcalorimeter (GE Healthcare, Madrid, Spain). The proteins were exhaustively dialyzed against the appropriate buffer (10 mM MES-NaOH pH 6.0 or 20 mM Tris-HCl, 100 mM NaCl pH 7.2), and sialyllactose solutions were prepared in the final dialysate. Titrations were performed by stepwise injections of the 3'- or 6'-sialyllactose-containing solution (21–40 mM) into the reaction cell loaded with the protein at concentrations of 78–474 μM. When required, a second set of injections followed the first one after refilling the injection pipette with the same sialyllactose solution. The CONCAT32 (GE Healthcare) program was used to concatenate the raw data of both series. The heat of ligand dilution was determined separately and subtracted from the total heat produced following each injection. Protein concentrations were determined spectrophotometrically at 280 nm using the predicted monomeric molar extinction coefficient (10,095 OD cm^-1 M^-1). Titration data were analyzed with the ORIGIN software (GE Healthcare).

[5] = target: TAdV-3 fiber head mutant E392A (avirulent context) (Turkey adenovirus 3, UniProt A0ABF7PFF5, E392A); assay: biochemical; assay type: binding, turkey adenovirus 3 (TAdV-3)
[6] = target: TAdV-3 fiber head mutant N407A (avirulent context) (Turkey adenovirus 3, UniProt A0ABF7PFF5, N407A); assay: biochemical; assay type: binding, turkey adenovirus 3 (TAdV-3)
[7] = test system: avirulent TAdV-3 fibre head; assay: Saturation transfer difference NMR (STD-NMR), avirulent variant; assay type: binding, turkey adenovirus 3 (TAdV-3); conditions: 1.5 mM ligand, 15 μM protein, phosphate pH 7.7, 298 K
Method: (§2) Saturation transfer difference nuclear magnetic resonance spectroscopy (STD-NMR) experiments were performed at 298 K in an AVANCE 500 MHz spectrometer (Bruker, Rivas Vaciamadrid, Spain) equipped with a 5 mm inverse probe head. STD experiments were performed in fully deuterated 10 mM potassium phosphate pH 7.7. Samples contained 1.5 mM of either 3'- or 6'-sialyllactose and 15 μM of either the virulent or the avirulent versions of TAdV-3 fibre head. The protein was saturated on-resonance at 0.5 ppm and off-resonance at 100 ppm with a train of Gaussian-shaped pulses of 50 ms each, totalling an irradiation time of 2 s. A T2 relaxation filter consisting of a 15 ms 5 kHz spin-lock was used to reduce the protein background signals. STD spectra were obtained by subtracting the on-resonance spectra from the off-resonance spectra. STD intensities were measured comparing each STD spectrum with the correspondent off-resonance spectrum and normalizing to the ligand peak receiving the highest degree of saturation (in all cases, the 5''-N-acetyl). The resonances of 3'- or 6'-sialyllactose were assigned by standard procedures (^1H-^1H TOCSY 70 ms, ^1H-^1H ROESY 600 ms and phase-sensitive ^1H-^13C HSQC). Data were analyzed with TOPSPIN (Bruker) and figures were made with MESTRENOVA (Mestrelab Research, Santiago de Compostela, Spain).

[8] = target: T1, TAdV-3 fibre head (virulent) (Turkey adenovirus 3, UniProt Q9YUQ4); assay: Isothermal titration calorimetry (ITC), virulent fibre head; assay type: binding, turkey adenovirus 3 (TAdV-3); conditions: 25°C
T1 sequence (Q9YUQ4 304-454): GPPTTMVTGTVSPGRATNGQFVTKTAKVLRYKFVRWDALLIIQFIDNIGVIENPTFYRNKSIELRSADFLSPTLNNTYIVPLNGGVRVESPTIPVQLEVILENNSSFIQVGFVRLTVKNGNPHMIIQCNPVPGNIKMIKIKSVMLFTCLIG
Method: as §1

[9] = target: TAdV-3 fiber head mutant K439A (avirulent context) (Turkey adenovirus 3, UniProt A0ABF7PFF5, K439A); assay: biochemical; assay type: binding, turkey adenovirus 3 (TAdV-3)
[10] = test system: virulent TAdV-3 fibre head; assay: Saturation transfer difference NMR (STD-NMR), virulent variant; assay type: binding, turkey adenovirus 3 (TAdV-3); conditions: 1.5 mM ligand, 15 μM protein, phosphate pH 7.7, 298 K
Method: as §2

[11] = 10 μg/ml protein in TBS-T pH 7.2
[12] = pH 6.0, three independent sites per trimer

Row | Compound | inhibition of fibre head binding to the glycan microarray [1] | fluorescence intensity on glycan microarray [1, 11] | Kd [4, 12] | Kd ([4]; pH 7.2) | STD-NMR interaction (saturation transfer) [7] | Kd [8, 12] | Kd ([8]; pH 7.2) | STD-NMR interaction (saturation transfer) [10] | further results
1 | OC[C@H]1O[C@@H](O[C@H]2[C@H](O)[C@@H](O)C(O)O[C@@H]2CO)[C@H](O)[C@@H](O)[C@H]1O (mixture of isomers) [lactose] | No binding inhibition | – | – | – | – | – | – | – | –
2 | CC(=O)NC1C(O)CC(OC2C(O)C(CO)OC(OC3C(CO)OC(O)C(O)C3O)C2O)(C(=O)O)OC1C(O)C(O)CO (stereo not shown) [3'-sialyllactose] | – | 5,000 RFU | 3.64 ± 0.01 mM | ~24 mM | saturation transfer was observed | 5.5 ± 0.1 mM | ~37 mM | saturation transfer was observed | Kd [2]: 3.23 ± 0.03 mM; - ΔH ([2]; ITC, 25°C, pH 6.0): 3.86 ± 0.02 kcal/mol of sites; - ΔS ([2]; ITC, 25°C, pH 6.0): 1.54 ± 0.05 cal/mol of sites/deg; Kd [3]: n.o. ^d; - ΔH ([4]; pH 6.0): 4.43 ± 0.01 kcal/mol of sites; - ΔS ([4]; pH 6.0): 3.70 ± 0.03 cal/mol of sites/deg; Kd [5]: ~20 mM; Kd [6]: 2.77 ± 0.04 mM; - ΔH ([6]; ITC, 25°C, pH 6.0): 4.66 ± 0.04 kcal/mol of sites; - ΔS ([6]; ITC, 25°C, pH 6.0): 3.9 ± 0.1 cal/mol of sites/deg; - ΔH ([8]; pH 6.0): 1.83 ± 0.03 kcal/mol of sites; - ΔS ([8]; pH 6.0): -4.19 ± 0.07 cal/mol of sites/deg; Kd [9]: 3.2 ± 0.2 mM; - ΔH ([9]; ITC, 25°C, pH 6.0): 3.9 ± 0.1 kcal/mol of sites; - ΔS ([9]; ITC, 25°C, pH 6.0): 1.7 ± 0.2 cal/mol of sites/deg
3 | CC(=O)NC1C(O)CC(OCC2OC(OC3C(CO)OC(O)C(O)C3O)C(O)C(O)C2O)(C(=O)O)OC1C(O)C(O)CO (stereo not shown) [6'-sialyllactose] | – | 6,100 RFU | ~7 mM | ~23 mM | saturation transfer was observed | ~20 mM | ~28 mM | saturation transfer was observed | –
4 | O=C[C@H](O)[C@@H](O)[C@@H](O)[C@H](O)CO [galactose] | No binding inhibition | – | – | – | – | – | – | – | –
5 | O=C[C@H](O)[C@@H](O)[C@H](O)CO [xylose] | – | – | – | – | no interaction with the proteins could be measured | – | – | no interaction with the proteins could be measured | –
6 | transferrin: glycoprotein with 3'- and 6'-sialyl-N-acetyllactosamine terminal structures | – | – | – | – | – | – | – | – | binding on glycan microarray (in words) ([1]; 10 μg/ml protein in TBS-T pH 7.2, threshold five times background): did not bind
